Data reported in patent US11629171B2, “Beta-hairpin peptidomimetics” (POLYPHOR AG, priority 2017, dated 2023).
Values after ≈ are worked out from the molar mass of the structure shown. Where a SMILES comes first, the peptide text is derived from it. Bridges are numbered along the chain shown (N, C = ends). Roman numbers before positions name the chains, in order. [ ]: non-standard residue; d: D form. dDab = NCC[C@@H](N)C(=O)O; Dab = NCC[C@H](N)C(=O)O; Dap = NC[C@H](N)C(=O)O

Assays:
Assay type in all cases: cell-based
[1] = test system: Acinetobacter baumannii 872842; conditions: 872842
Summary of the method: (§1)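 Two-fold peptide dilutions in polysorbate 80-containing (0.002% final) cation-adjusted Mueller-Hinton II broth were inoculated with about 10^6 CFU/mL. The MIC was taken as the lowest concentration, in μg/mL, preventing visible growth at 18-20 hours and 35° C.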

[2] = test system: Acinetobacter baumannii DSM 30008; conditions: DSM 30008
Summary of the method: as §1

[3] = test system: Enterobacter cloacae 848840; conditions: 848840
Summary of the method: as §1

[4] = test system: Escherichia coli 926415; conditions: 926415
Summary of the method: as §1

[5] = test system: Escherichia coli ATCC 25922; conditions: ATCC 25922
Summary of the method: as §1

[6] = test system: Klebsiella pneumoniae 968733; conditions: 968733
Summary of the method: as §1

[7] = test system: Klebsiella pneumoniae SSI #3010; conditions: SSI #3010
Summary of the method: as §1

[8] = test system: Pseudomonas aeruginosa ATCC 27853; conditions: ATCC 27853
Summary of the method: as §1

[9] = test system: human red blood cells (hRBC); assay: Hemolysis; conditions: red cells of human, 1 h, 200
Summary of the method: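 Percent hemolysis relative to 2% Triton X-100 (100%) and PBS/10% water (0%), from blank-corrected OD540 of diluted supernatants. Peptides tested at 200 μg/mL against 20% (v/v) washed human erythrocytes, 1 h, 37° C, shaking at 300 rpm.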

Compound: CC(=O)N[C@H](C(=O)N[C@H]1CCN(C)C(=O)CC[C@@H](C(=O)N[C@@H](CO)C(N)=O)NC(=O)[C@H](C(C)C)NC(=O)[C@H](CO)NC(=O)[C@H](Cc2c[nH]c3ccccc23)NC(=O)[C@H](CO)NC(=O)[C@@H](CCN)NC(=O)[C@H](CCC(=O)N[C@@H](CCN)C(=O)N[C@H](C(=O)N[C@@H](CN)C(=O)N[C@H]2CCNC(=O)[C@H]([C@@H](C)O)NC(=O)[C@H](CCN)NC(=O)[C@H](CCN)NC(=O)[C@H](CC(C)C)NC(=O)[C@@H](CC(C)C)NC(=O)[C@H](CCN)NC2=O)[C@@H](C)O)NC(=O)[C@H](CCN)NC(=O)[C@H](Cc2ccc(O)cc2)NC1=O)C(C)C [Ex. 303]
- MIC [1]: 0.5 µg/mL (≈ 0.207 µM)
- Acinetobacter baumannii DSM 30008 MIC [2]: 0.25 µg/mL
- MIC [3]: 1 µg/mL (≈ 0.413 µM)
- MIC [4]: 1 µg/mL (≈ 0.413 µM)
- Escherichia coli ATCC 25922 MIC [5]: 0.0625 µg/mL
- MIC [6]: 1 µg/mL (≈ 0.413 µM)
- Klebsiella pneumoniae SSI #3010 MIC [7]: 0.0625 µg/mL
- Pseudomonas aeruginosa ATCC 27853 MIC [8]: 0.25 µg/mL
- Hemolysis at 200 μg/mL [9]: <1%

Compound: CC(C)C[C@@H]1NC(=O)[C@@H](CC(C)C)NC(=O)[C@H](CCN)NC(=O)[C@@H](NC(=O)[C@H](CN)NC(=O)[C@@H](NC(=O)[C@H](CCN)NC(=O)CC[C@@H]2NC(=O)[C@H](CCN)NC(=O)[C@H](Cc3ccc(O)cc3)NC(=O)[C@@H](NC(=O)[C@@H](O)C(C)C)CCN(C)C(=O)C[C@@H](C(=O)N[C@@H](CO)C(N)=O)NC(=O)[C@H](C(C)C)NC(=O)[C@H](CO)NC(=O)[C@H](Cc3c[nH]c4ccccc34)NC(=O)[C@H](CO)NC(=O)[C@@H](CCN)NC2=O)[C@@H](C)O)CCNC(=O)[C@H]([C@@H](C)O)NC(=O)[C@H](CCN)NC(=O)[C@H](CCN)NC1=O [Ex. 304]
- MIC [1]: 1 µg/mL (≈ 0.423 µM)
- Acinetobacter baumannii DSM 30008 MIC [2]: 0.25 µg/mL
- MIC [3]: 2 µg/mL (≈ 0.846 µM)
- MIC [4]: 2 µg/mL (≈ 0.846 µM)
- Escherichia coli ATCC 25922 MIC [5]: 0.125 µg/mL
- MIC [6]: 4 µg/mL (≈ 1.69 µM)
- Klebsiella pneumoniae SSI #3010 MIC [7]: 0.0625 µg/mL
- Pseudomonas aeruginosa ATCC 27853 MIC [8]: 0.25 µg/mL
- Hemolysis at 200 μg/mL [9]: <1%

Compound: CC(=O)N[C@H](C(=O)N[C@H]1CSSC[C@@H](C(=O)N[C@@H](CO)C(N)=O)NC(=O)[C@H](C(C)C)NC(=O)[C@H](CO)NC(=O)[C@H](Cc2c[nH]c3ccccc23)NC(=O)[C@@H](CO)NC(=O)[C@@H](CCN)NC(=O)[C@H](CCC(=O)N[C@@H](CCN)C(=O)N[C@H](C(=O)N[C@@H](CN)C(=O)N[C@H]2CCNC(=O)[C@H]([C@@H](C)O)NC(=O)[C@H](CCN)NC(=O)[C@H](CCN)NC(=O)[C@H](CC(C)C)NC(=O)[C@@H](CC(C)C)NC(=O)[C@H](CCN)NC2=O)[C@@H](C)O)NC(=O)[C@H](CCN)NC(=O)[C@H](Cc2ccc(O)cc2)NC1=O)C(C)C [Ex. 305] (I: Ac-VCY[Dab]E[dDab][dS]WSVCS-NH2 / II: [Dab]T[Dap][Dab][Dab][dL]L[Dab][Dab]T; disulfide I:2-I:11; amide I:5-II:N; lactam II:4-II:C)
- MIC [1]: 0.125 µg/mL (≈ 0.0521 µM)
- Acinetobacter baumannii DSM 30008 MIC [2]: 0.0625 µg/mL
- MIC [3]: 0.25 µg/mL (≈ 0.104 µM)
- MIC [4]: 0.25 µg/mL (≈ 0.104 µM)
- Escherichia coli ATCC 25922 MIC [5]: 0.0625 µg/mL
- MIC [6]: 0.25 µg/mL (≈ 0.104 µM)
- Klebsiella pneumoniae SSI #3010 MIC [7]: 0.0625 µg/mL
- Pseudomonas aeruginosa ATCC 27853 MIC [8]: 0.125 µg/mL
- Hemolysis at 200 μg/mL [9]: 3%

Compound: CC(=O)N[C@H](C(=O)N[C@H]1CSSC[C@@H](C(=O)N[C@@H](CO)C(N)=O)NC(=O)[C@H](C(C)C)NC(=O)[C@H](CO)NC(=O)[C@H](Cc2c[nH]c3ccccc23)NC(=O)[C@H](CO)NC(=O)[C@@H](CCN)NC(=O)[C@H](CCC(=O)N[C@@H](CCN)C(=O)NCC(=O)N[C@@H](CN)C(=O)N[C@H]2CCNC(=O)[C@H]([C@@H](C)O)NC(=O)[C@H](CCN)NC(=O)[C@H](CCN)NC(=O)[C@H](CC(C)C)NC(=O)[C@@H](CC(C)C)NC(=O)[C@H](CCN)NC2=O)NC(=O)[C@H](CCN)NC(=O)[C@H](Cc2ccc(O)cc2)NC1=O)C(C)C [Ex. 307] (I: Ac-VCY[Dab]E[dDab]SWSVCS-NH2 / II: [Dab]G[Dap][Dab][Dab][dL]L[Dab][Dab]T; disulfide I:2-I:11; amide I:5-II:N; lactam II:4-II:C)
- MIC [1]: 0.5 µg/mL (≈ 0.212 µM)
- Acinetobacter baumannii DSM 30008 MIC [2]: 0.25 µg/mL
- MIC [3]: 4 µg/mL (≈ 1.7 µM)
- MIC [4]: 0.5 µg/mL (≈ 0.212 µM)
- Escherichia coli ATCC 25922 MIC [5]: 0.125 µg/mL
- MIC [6]: 1 µg/mL (≈ 0.425 µM)
- Klebsiella pneumoniae SSI #3010 MIC [7]: 0.125 µg/mL
- Pseudomonas aeruginosa ATCC 27853 MIC [8]: 0.125 µg/mL
- Hemolysis at 200 μg/mL [9]: <1%
